Measured values from PubChem BioAssay (NCI).
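Values below derive from 48-hour exposures of cells grown in 96-well plates, with endpoints linearly interpolated between the two concentrations bracketing the appropriate inhibition level. TGI marks complete inhibition of growth.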

Assays:
Experiment in all cases: NCI anticancer screen, dose series, 48 h
U251 CNS = test system: U251 CNS
SF-268 CNS = test system: SF-268 CNS
BT-549 breast = test system: BT-549 breast
SNB-19 CNS = test system: SNB-19 CNS
HOP-62 NSCLC = test system: HOP-62 NSCLC
UACC-62 melanoma = test system: UACC-62 melanoma
SK-MEL-5 melanoma = test system: SK-MEL-5 melanoma
786-0 renal = test system: 786-0 renal
RXF 393 renal = test system: RXF 393 renal
MALME-3M melanoma = test system: MALME-3M melanoma
MDA-MB-435 = test system: MDA-MB-435
HCC-2998 colon = test system: HCC-2998 colon
HCT-116 colon = test system: HCT-116 colon
SK-MEL-28 melanoma = test system: SK-MEL-28 melanoma
COLO 205 colon = test system: COLO 205 colon
IGROV1 ovarian = test system: IGROV1 ovarian
HT29 colon = test system: HT29 colon
SNB-75 CNS = test system: SNB-75 CNS

SMILES | TGI (U251 CNS) [µM] | TGI (SF-268 CNS) [µM] | TGI (BT-549 breast) [µM] | TGI (SNB-19 CNS) [µM] | TGI (HOP-62 NSCLC) [µM] | TGI (UACC-62 melanoma) [µM] | TGI (SK-MEL-5 melanoma) [µM] | TGI (786-0 renal) [µM] | TGI (RXF 393 renal) [µM] | TGI (MALME-3M melanoma) [µM] | TGI (MDA-MB-435) [µM] | TGI (HCC-2998 colon) [µM] | TGI (HCT-116 colon) [µM] | TGI (SK-MEL-28 melanoma) [µM] | TGI (COLO 205 colon) [µM] | TGI (IGROV1 ovarian) [µM] | TGI (HT29 colon) [µM] | TGI (SNB-75 CNS) [µM]
COc1ccccc1N1C(=O)/C(=C\c2cc(OC)c(OC)c(OC)c2)S(=O)(=O)C1c1ccccc1 (configuration not stated) | > 100 | > 100 | > 100 | > 100 | > 100 | > 100 | > 100 | > 100 | 61.1 | 96.3 | 41.3 | > 100 | > 100 | > 100 | > 100 | – | – | –
COC(=O)c1c(C(=O)OC)c(C(c2ccccc2)c2ccccc2)n(-c2ccccc2)c1Cl | > 10 | > 10 | > 10 | > 10 | > 10 | > 10 | > 10 | > 10 | > 10 | > 10 | > 10 | > 10 | > 10 | > 10 | > 10 | > 10 | > 10 | –
COc1ccc(C(=O)N2CCN(c3ccc4[nH]c(=O)oc4c3)CC2)cc1 | > 100 | > 100 | > 100 | > 100 | > 100 | > 100 | > 100 | > 100 | – | > 100 | > 100 | > 100 | > 100 | > 100 | > 100 | > 100 | > 100 | > 100
COC(=O)/C=C(\S/C(=C(/c1ccc(OC)cc1)n1cc(C(=O)OC)c(C(=O)OC)n1)c1ccc(OC)cc1)C(=O)OC | > 100 | 78.8 | > 100 | > 100 | > 100 | > 100 | > 100 | 26.9 | 29.4 | 37.1 | 34.2 | – | 31.3 | > 100 | 8.64 | 22.5 | 30.7 | > 100
C(/C=N/NC1=NCCCN1)=N\NC1=NCCCN1 | > 100 | > 100 | > 100 | > 100 | > 100 | > 100 | > 100 | > 100 | – | > 100 | > 100 | > 100 | > 100 | > 100 | > 100 | > 100 | > 100 | > 100
C/C1=C\CC[C@@]2(C)O[C@@H]2[C@H]2OC(=O)C(C)C2C[C@H]1O (some centres not stated) | > 100 | > 100 | – | > 100 | – | > 100 | > 100 | > 100 | > 100 | > 100 | > 100 | > 100 | > 100 | > 100 | > 100 | > 100 | > 100 | > 100
CC1(C)N=C(N)N=C(N)N1c1cccc(OCc2cccc([N+](=O)[O-])c2)c1 | 98.9 | > 100 | > 100 | > 100 | > 100 | > 100 | > 88.7 | > 100 | > 100 | > 100 | > 100 | – | > 100 | > 100 | > 100 | > 100 | > 100 | > 100
C/C(=N/NC(=S)N1CCCC1)c1cccc(/C(C)=N\NC(=S)N2CCCC2)n1 | 4.14 | 14.7 | 5.13 | 12.1 | 0.891 | 9.39 | 2.69 | 2.66 | 3.18 | 4.89 | 3.13 | 2.86 | 3.28 | 5.09 | > 100 | 37.1 | 5.1 | –
N#CC1=C(N)Nc2nc3ccccc3n2C1c1ccccc1 (configuration not stated) | > 100 | > 100 | 62.4 | > 100 | > 100 | > 100 | > 100 | > 100 | 56.3 | – | > 100 | – | > 100 | – | > 100 | > 100 | > 100 | –
O=C(Nc1ccccc1)C(=O)C(C(=O)c1ccccc1)C(c1ccccc1)c1ccccc1 (configuration not stated) | – | > 10 | – | – | > 10 | > 10 | > 10 | > 10 | > 10 | > 10 | > 10 | > 10 | – | > 10 | > 10 | > 10 | > 10 | > 10
CC1=[N+]([O-])C(C)(C)N(O)C1(C)C | > 100 | > 100 | – | > 100 | > 100 | > 100 | > 100 | > 100 | > 100 | > 100 | > 100 | > 100 | > 100 | > 100 | > 100 | > 100 | > 100 | > 100
COc1cc(/C=C2\N=C(c3ccccc3)N(/N=C/c3cc4cc(C)ccc4nc3Cl)C2=O)cc(OC)c1OC | 51 | > 100 | > 100 | > 100 | > 100 | > 100 | > 100 | > 100 | – | – | 40.7 | 45.4 | > 100 | > 100 | 63.7 | > 100 | > 100 | 61.5
C=C1CC(COc2ccc3ccc(=O)oc3c2)(c2ccccc2)OC1=O (configuration not stated) | 22.2 | 11.9 | 2.95 | 28.5 | 26.9 | 2.92 | 2.85 | 2.84 | – | 6.77 | 7.82 | 2.48 | 2 | 6.12 | 1.79 | 3.36 | 2.27 | 12.2
O=C1CCSc2c(cnc3ccccc23)N1 | > 100 | > 100 | > 100 | – | > 100 | > 100 | > 100 | > 100 | > 100 | > 100 | > 100 | – | > 100 | > 100 | > 100 | > 100 | > 100 | > 100
